Measured values from patent EP0840727B1, “3-HYDROXY-2(1H)-[…] AGENTS” (priority 1995, dated 1997).
Marks after values point to notes of the source that are not given here.

Tests used:
[1] = In vivo acute toxicity test of injected ligands in mice
Method: The test of acute toxicity of novel and comparative ligands was carried out as follows. Groups of five mice were each given a single i.p. injection of […] of ligand and a day for 10 days or given two i.p. injections of […] in 8 hours. The ligand was dissolved in 0.5 to 1.0 ml of saline at pH 7 to 8. After a period of observation, the mice were killed; selected tissues were removed and fixed for histopathological examination; and unusual findings at autopsy were recorded. […]

[2] = Promoting excretion of 238Pu(IV) in mice by injected ligands; format: in vivo; conditions: for percent of injected ^238Pu ± SD at 24 h, tissues: liver / percent of injected ^238Pu ± SD at 24 h, tissues: skeleton / percent of injected ^238Pu ± SD at 24 h, tissues: soft tissue / percent of injected ^238Pu ± SD at 24 h, whole body / percent of injected ^238Pu at 24 h, excreta: feces and GI contents / percent of injected ^238Pu at 24 h, excreta: urine 0-24 h / percent of injected ^238Pu at 24 h, tissues: kidneys: ligand 30 µmol kg^-1 ip at 1 h after iv ^238Pu(IV) citrate, kill at 24 h; for percent of injected ^238Pu at 24 h, excreta: feces and GI contents / percent of injected ^238Pu at 24 h, excreta: urine 0-24 h / percent of injected ^238Pu at 24 h, tissues: kidneys: pooled samples; for Pu removal (in words): injected ligands, 30 µmol/kg intraperitoneally one hour after ^238Pu(IV)
Source text: Animal studies were completed using methods detailed in Radiation Protection Dosimetry, in press, P. W. Durbin et al., "In Vivo Chelation of Am(III), Pu(IV), Np(V) and U(VI) in Mice by TREN-(Me-3,2-HOPO)"; Radiation Protection Dosimetry, 17, No. 1, 1989, p. 351, P. W. Durbin et al., "Removal of ^238Pu(IV) from Mice by Polycatechoylate, -Hydroxamate or -Hydroxypyridinonate Ligands"; Radiation Research, 99, 1984, p. 85, P. W. Durbin et al., "Specific Sequestering Agents for the Actinides ..."; Radiation Research, 99, 1984, p. 106, P. W. Durbin et al., "Removal of Pu and Am from Beagles and Mice ..."; Radiation Research, 81, 1980, p. 170, R. D. Lloyd et al., and P. W. Durbin et al., "Specific Sequestering Agents for the Actinides ...". The foregoing articles are hereby incorporated by reference.
Radionuclides used in the animal studies came from a variety of sources. However, they can be purchased commercially. The ^238Pu(IV) citrate and ^241Am(III) citrate solutions were prepared for animal injection by 8- to 10-fold dilution with 0.14M NaCl (pH 4) of concentrated stock solutions (0.08M sodium citrate buffer) that had been held in frozen storage at Lawrence Berkeley Laboratory (hereinafter LBL) for several years. [The ^238Pu(IV) was originally obtained from D. R. Atherton at the University of Utah Radiobiology Laboratory, Salt Lake City. The ^241Am(III) solution had been obtained many years earlier from the LBL Actinide Chemistry group.]
The novel chelating agents of the present invention and comparative compounds were tested for their effectiveness in promoting excretion ^238Pu(IV) in nice by injected ligands as follows. Mice, in groups of five, each received an intravenous injection of 1850 Bq ^238Pu(IV) in 0.2 mL of citrate buffer. One hour later, 30 µmol/kg of ligand was injected intraperitoneally in 0.5 mL of saline. The mice were killed 24 hours after the Pu injection, frozen, and dissected after partial thawing. The ^238Pu in skeleton, soft tissues, and separated excreta was determined by counting the ^234U L x-rays. Results of removal of ^238Pu(IV) from mice by injected ligands are summarized in Table 3, which also includes data for CaNa3-DTPA and other reference ligands and the Pu-injected controls. […] While the case of multidente 1,2-HOPO and catechoylamide chelating agents, octadentates are always better chelating agents than the corresponding hexadentates and tetradentates.

[3] = protocol IA, 100 µmol kg^-1 x 2 daily, study length 6 d, data for two moribund mice autopsied on d 3
[4] = protocol IB, 100 µmol kg^-1, study length 5 d
[5] = protocol I, 100 µmol kg^-1 x 10 daily i.p., study length 11 d
[6] = protocol I, 100 µmol kg^-1 x 10 daily i.p., study length 21 d
[7] = protocol II, 500 µmol kg^-1 x 2 in 8 h, study length 11 d

Structure (SMILES)	percent of injected ^238Pu ± SD at 24 h, tissues: liver [2]	percent of injected ^238Pu ± SD at 24 h, tissues: skeleton [2]	percent of injected ^238Pu ± SD at 24 h, tissues: soft tissue [2]	percent of injected ^238Pu ± SD at 24 h, whole body [2]	percent of injected ^238Pu at 24 h, excreta: feces and GI contents [2]	percent of injected ^238Pu at 24 h, excreta: urine 0-24 h [2]	percent of injected ^238Pu at 24 h, tissues: kidneys [2]	also measured
Cn1ccc(C(=O)NCCCNC(=O)c2ccn(C)c(=O)c2O)c(O)c1=O [3-LI-Me-3,2-HOPO, 1,3-bis[(3-hydroxy-1-methyl-2-oxo-1,2-dihydropyridin-4yl)carboxamido]propane]	9.5 ± 4.9^d percent of injected ^238Pu	14 ± 1.9% of injected ^238Pu	2.6 ± 0.4% of injected ^238Pu	27 ± 5.2% of injected ^238Pu	41.6% of injected ^238Pu	32% of injected ^238Pu	0.5% of injected ^238Pu	no. of survivors ([1]; protocol IA, 100 µmol kg^-1 x 2 daily, study length 6 d): 0; percent control mean + SD: body weight [1, 3]: 89 ± 4 percent control; percent control mean + SD: kidney weight [1, 3]: 222 ± 29 percent control; percent control mean + SD: plasma urea N [1, 3]: >1800 percent control
Cn1ccc(C(=O)NCCCCNC(=O)c2ccn(C)c(=O)c2O)c(O)c1=O [4-LI-Me-3,2-HOPO]	3.7 ± 1.5^d percent of injected ^238Pu	11 ± 1.7% of injected ^238Pu	1.9 ± 0.5% of injected ^238Pu	17 ± 2.4^d percent of injected ^238Pu	63% of injected ^238Pu	19.4% of injected ^238Pu	0.4% of injected ^238Pu	no. of survivors [1, 4]: 0; percent control mean + SD: body weight [1, 4]: 85 ± 8 percent control; percent control mean + SD: kidney weight [1, 4]: 190 ± 63 percent control; percent control mean + SD: plasma urea N [1, 4]: >2000 percent control; Pu removal (in words) [2]: as effective or more effective than the hexadentate and octadentate chelating agents
Cn1ccc(C(=O)NCCCCCNC(=O)c2ccn(C)c(=O)c2O)c(O)c1=O [5-LI-Me-3,2-HOPO, 1,5-bis[(3-hydroxy-1-methyl-2-oxo-1,2-dihydropyridin-4-yl)carboxamido]pentane]	3.1 ± 0.8^d percent of injected ^238Pu	10 ± 1.2% of injected ^238Pu	1.9 ± 0.5% of injected ^238Pu	16 ± 1.9^d percent of injected ^238Pu	67.6% of injected ^238Pu	17.5% of injected ^238Pu	0.3% of injected ^238Pu	toxicity (in words) ([1]; even at the relatively high dosage of 2x500 µmol/kg in 8 hours): low toxicity; no. of survivors [1, 5]: 5; percent control mean + SD: body weight [1, 5]: 102 ± 5 percent control; percent control mean + SD: kidney weight [1, 5]: 109 ± 14 percent control; percent control mean + SD: plasma urea N [1, 5]: 89 ± 1 percent control; no. of survivors [1, 6]: 5; percent control mean + SD: body weight [1, 6]: 102 ± 5 percent control; percent control mean + SD: kidney weight [1, 6]: 100 ± 4 percent control; percent control mean + SD: plasma urea N [1, 6]: 101 ± 2 percent control; no. of survivors [1, 7]: 5; percent control mean + SD: body weight [1, 7]: 99 ± 3 percent control; percent control mean + SD: kidney weight [1, 7]: 109 ± 9 percent control; percent control mean + SD: plasma urea N [1, 7]: 98 ± 18 percent control; Pu removal (in words) [2]: as effective or more effective than the hexadentate and octadentate chelating agents
Cn1ccc(C(=O)NCCN(CCCN(CCNC(=O)c2ccn(C)c(=O)c2O)CCNC(=O)c2ccn(C)c(=O)c2O)CCNC(=O)c2ccn(C)c(=O)c2O)c(O)c1=O [H(3,2)-Me-3,2-HOPO, N,N,N',N'-tetrakis[(3-hydroxy-1-methyl-2-oxo-1,2-dihydropyridin-4-yl)carboxamido-ethyl]-propylenediamine]	14 ± 6.1% of injected ^238Pu	10 ± 2.0% of injected ^238Pu	2.4 ± 0.3^d percent of injected ^238Pu	28 ± 4.8% of injected ^238Pu	52.1% of injected ^238Pu	19.5% of injected ^238Pu	1.2% of injected ^238Pu	
Cn1ccc(C(=O)NCCN(CCCCN(CCNC(=O)c2ccn(C)c(=O)c2O)CCNC(=O)c2ccn(C)c(=O)c2O)CCNC(=O)c2ccn(C)c(=O)c2O)c(O)c1=O [H(4,2)-Me-3,2-HOPO, N,N,N',N'-tetrakis[(3-hydroxy-1-methyl-2-oxo-1,2-dihydropyridin-4-yl)carboxamido-ethyl]-butylenediamine]	29 ± 6.1% of injected ^238Pu	12 ± 2.9% of injected ^238Pu	1.9 ± 1.0% of injected ^238Pu	46 ± 8.5% of injected ^238Pu	26.8% of injected ^238Pu	28% of injected ^238Pu	1.8% of injected ^238Pu	
Cc1c(CNC(=O)c2ccn(C)c(=O)c2O)c(C)c(CNC(=O)c2ccn(C)c(=O)c2O)c(C)c1CNC(=O)c1ccn(C)c(=O)c1O [ME-Me-3,2-HOPO]	6.1 ± 4.9^d percent of injected ^238Pu	12 ± 1.8% of injected ^238Pu	3.0 ± 2.0% of injected ^238Pu	22 ± 8.5^d percent of injected ^238Pu	70.1% of injected ^238Pu	33.5% of injected ^238Pu	0.9% of injected ^238Pu	
Cn1ccc(C(=O)NCCN(CCNC(=O)c2ccn(C)c(=O)c2O)CCN(CC(=O)O)CC(=O)O)c(O)c1=O [TREN-bis(Me-3,2-HOPO)-bis acetic acid]	6.6 ± 2.2^d percent of injected ^238Pu	20 ± 1.7% of injected ^238Pu	2.7 ± 0.8% of injected ^238Pu	30 ± 3.6% of injected ^238Pu	34.6% of injected ^238Pu	8.7% of injected ^238Pu	0.5% of injected ^238Pu	
Cn1ccc(C(=O)NCCCN(CCCNC(=O)c2ccn(C)c(=O)c2O)CCCNC(=O)c2ccn(C)c(=O)c2O)c(O)c1=O [TRPN-Me-3,2-HOPO]	17 ± 5.0% of injected ^238Pu	14 ± 3.2% of injected ^238Pu	2.0 ± 1.1% of injected ^238Pu	33 ± 5.3% of injected ^238Pu	11.5% of injected ^238Pu	55% of injected ^238Pu		
